The text below walks through data of ChEMBL document CHEMBL4049436, “Inhibitors of 15-Prostaglandin Dehydrogenase To Potentiate Tissue Repair” (J Med Chem, 2017).

One series has as its system Liver. The series can be described thus: (§1) Half life in mouse liver S9 fractions at 2 uM in presence of NADPH by LC-MS/MS analysis. Type of series: ADME, tissue-based. Conditions: s9, 2 µM.
Series [1] in a line: as §1. Type of series: ADME, tissue-based. To be noted: liver S9 fraction.
Series [2] can be described thus: (§2) AUC in CD1 mouse at 10 mg/kg, ip measured at 10 to 1440 mins post dose by LC-MS/MS analysis. Conditions: CD1, mouse, in vivo. Type of series: ADME, organism-based.
Series [3] in a line: Plasma concentration in CD1 mouse at 10 mg/kg, ip measured at 3 hrs post dose by LC-MS/MS analysis. The series is classed as ADME, organism-based.
A short description of series [4]: Half life in human liver S9 fraction at 2 uM by LC-MS/MS analysis. The series is classed as ADME, tissue-based.
A short description of series [5]: Plasma concentration in […] mouse at […], ip measured up to 3 hrs post dose by LC-MS/MS analysis. The series is classed as ADME, organism-based.
The nature of series [6]: (§3) Cmax in CD1 mouse at 10 mg/kg, ip measured at 10 to 1440 mins post dose by LC-MS/MS analysis. The series is classed as ADME, organism-based. Also on record: dose 10 mg/kg, route intraperitoneal. Conditions: CD1, mouse, in vivo.
In series [7] the test system is Mus musculus. The description is as §2. The series is classed as ADME, organism-based. Conditions: mouse, in vivo.
The test system of series [8] is Mus musculus. The series is described as §3. Also on record: dose 10 mg/kg, route intraperitoneal. Conditions: mouse, in vivo. Type of series: ADME, organism-based.

SMILES strings stand for the structures.

Take `CCCC[S+]([O-])c1sc2nc(-c3nccs3)cc(-c3ccc(COC(=O)CN(C)C)cc3)c2c1N` (stereo not drawn): the t1/2 in the series with Liver came to 0.033 h.
For `CCCC[S@@+]([O-])c1sc2nc(-c3nccs3)cc(-c3cnc(C)n3C)c2c1N`, the half-life at 2 µM in series [1] is 0.583 h; in series [4] it was > 4 h. This compound also showed an AUC in series [2] of 783 ng·h/mL. Besides, the concentration at 3 h in [3] and in [5] was < 10 nM each time. In addition, the peak level in series [6] (Cmax) was 3100 nM.
Turning to `COCCC[S+]([O-])c1sc2nc(-c3nccs3)cc(-c3cnc(C)n3C)c2c1N` (stereo not drawn), the t1/2 in the series with Liver was > 4 h.
In the case of `CCCC[S+]([O-])c1sc2nc(-c3cccs3)cc(-c3ccccc3)c2c1N` (stereo not drawn), the half-life at 2 µM in series [1] was 1.38 h. The AUC in series [2] was 1380 ng·h/mL. The same compound displayed a Cmax in series [6] of 1500 nM.
Consider `COCC[S+]([O-])c1sc2nc(-c3nccs3)cc(-c3cnc(C)n3C)c2c1N` (stereo not drawn), for which, in the series on Liver, the t1/2 was > 4 h. The AUC in the series with Mus musculus [7] is 116 µg·min/mL. In [3], this compound displayed a concentration at 3 h of 60 nM. The Cmax with Mus musculus [8] was 6200 nM.
On to `CCCC[S@+]([O-])c1sc2nc(-c3nccs3)cc(-c3cnc(C)n3C)c2c1N`, for which the half-life at 2 µM in [1] was 4.82 h; in series [4], 3.73 h.
On to `CCCC[S+]([O-])c1sc2nc(-c3nccs3)cc(-c3ccc(OCCO)cc3)c2c1N` (stereo not drawn), for which the t1/2 in the series with Liver was found to be 1.38 h. Further, the AUC in the series on Mus musculus [7] was determined as 959 µg·min/mL. The concentration at 3 h in series [3] was found to be 4200 nM. Besides, in the series with Mus musculus [8], the Cmax came to 13000 nM.
Compound `CCCC[S+]([O-])c1sc2nc(-c3nccs3)nc(-c3ccccc3)c2c1N` (racemic) registered an AUC with Mus musculus [7] of 172 µg·min/mL. Also, the concentration at 3 h in series [3] stood at 60 nM. In addition, the Cmax in the series on Mus musculus [8] was 10600 nM.
For the compound `CCCC[S+]([O-])c1sc2nc(-c3nccs3)cc(-c3ccc(CO)cc3)c2c1N` (stereo not drawn), in the series with Liver, the t1/2 turned out to be 0.217 h.
For `CCCC[S@@+]([O-])c1sc2nc(-c3cccs3)cc(-c3ccccc3)c2c1N`, in [1], the half-life at 2 µM came to 0.217 h. The AUC in series [2] is 717 ng·h/mL. Moreover, the Cmax in series [6] was found to be 1600 nM.

The half-life is the time needed for the level to fall by half in the phase considered. The term AUC denotes the area under the concentration-time curve, a measure of exposure. Higher therefore signals high exposure. By Cmax is commonly meant the maximum level reached in the sampled fluid or tissue.
